Among the data in PMC6458995, “MAP4K4 Inhibition Promotes Survival of Human Stem Cell-Derived Cardiomyocytes and Reduces Infarct Size In Vivo” (Cell Stem Cell, 2019) are remaining activity and residual activity values, retold here.

SMILES strings stand for the structures.

Common to all, as to assay: Dundee kinase panel
Assay type in all cases: biochemical
Holding throughout (details): for remaining activity at 1 µM: read-out: residual activity

For test [1], the target named is T1, SGK1 (Homo sapiens, UniProt O00141).
T1 construct: lines 1-140) and Reaction Biology
T1 sequence (O00141 1-431): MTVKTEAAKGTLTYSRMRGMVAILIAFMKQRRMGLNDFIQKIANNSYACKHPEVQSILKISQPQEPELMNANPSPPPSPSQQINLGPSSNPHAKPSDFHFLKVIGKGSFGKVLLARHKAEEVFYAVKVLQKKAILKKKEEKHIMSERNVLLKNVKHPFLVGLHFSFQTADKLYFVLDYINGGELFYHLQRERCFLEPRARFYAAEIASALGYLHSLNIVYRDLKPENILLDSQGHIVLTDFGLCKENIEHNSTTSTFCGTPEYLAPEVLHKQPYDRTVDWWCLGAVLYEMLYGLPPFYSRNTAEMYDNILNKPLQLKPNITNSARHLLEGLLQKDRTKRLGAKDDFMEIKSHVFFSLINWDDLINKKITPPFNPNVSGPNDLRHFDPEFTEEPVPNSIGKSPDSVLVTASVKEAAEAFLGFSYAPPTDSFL
How it is done: (§1) Compounds were screened at 1 μM. For key hits, pIC50 values were then determined by HTRF as above. […] Stability in mouse and human liver microsomes was determined by Cyprotex.

The target of test [2] is T2, VEGFR (Homo sapiens, UniProt P17948).
T2 construct: lines 1-140) and Reaction Biology
T2 sequence (P17948 784-1338 limits assumed): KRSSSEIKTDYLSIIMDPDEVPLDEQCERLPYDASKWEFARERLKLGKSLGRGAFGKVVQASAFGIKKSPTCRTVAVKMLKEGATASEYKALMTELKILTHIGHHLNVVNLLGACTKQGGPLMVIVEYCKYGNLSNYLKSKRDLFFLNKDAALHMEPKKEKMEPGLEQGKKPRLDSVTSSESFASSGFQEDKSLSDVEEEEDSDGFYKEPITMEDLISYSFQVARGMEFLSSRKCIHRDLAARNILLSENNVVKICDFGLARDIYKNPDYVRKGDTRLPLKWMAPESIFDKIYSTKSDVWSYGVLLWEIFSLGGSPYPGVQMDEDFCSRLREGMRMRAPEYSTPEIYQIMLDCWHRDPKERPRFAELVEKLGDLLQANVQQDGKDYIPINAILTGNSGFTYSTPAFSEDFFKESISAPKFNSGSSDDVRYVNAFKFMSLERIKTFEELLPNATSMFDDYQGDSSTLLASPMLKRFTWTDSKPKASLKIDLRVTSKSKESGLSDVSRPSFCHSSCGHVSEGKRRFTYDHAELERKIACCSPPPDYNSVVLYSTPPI
On the procedure:
as §1

Test [3] deals with T3, p38b MAPK (Homo sapiens, UniProt Q15759).
T3 construct: lines 1-140) and Reaction Biology
T3 sequence (Q15759 whole entry): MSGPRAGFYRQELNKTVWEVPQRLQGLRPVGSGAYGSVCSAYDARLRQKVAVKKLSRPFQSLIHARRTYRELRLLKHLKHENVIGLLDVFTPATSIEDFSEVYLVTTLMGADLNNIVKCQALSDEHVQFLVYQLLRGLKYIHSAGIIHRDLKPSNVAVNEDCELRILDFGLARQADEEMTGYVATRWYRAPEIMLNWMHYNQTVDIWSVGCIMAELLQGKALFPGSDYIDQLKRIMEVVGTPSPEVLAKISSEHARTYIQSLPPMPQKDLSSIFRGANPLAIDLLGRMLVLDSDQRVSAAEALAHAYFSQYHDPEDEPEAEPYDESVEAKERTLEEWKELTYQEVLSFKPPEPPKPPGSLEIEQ
How it is done:
as §1

Test [4] addresses T4, JNK2 (Homo sapiens, UniProt P45984).
T4 construct: lines 1-140) and Reaction Biology
How it is done:
as §1

Test [5] has as its target T5, CK1γ2 (Homo sapiens, UniProt P78368).
T5 construct: lines 1-140) and Reaction Biology
How it is done:
as §1

The target of test [6] is T6, SRPK1 (Homo sapiens, UniProt Q96SB4).
T6 construct: lines 1-140) and Reaction Biology
T6 sequence (Q96SB4 whole entry): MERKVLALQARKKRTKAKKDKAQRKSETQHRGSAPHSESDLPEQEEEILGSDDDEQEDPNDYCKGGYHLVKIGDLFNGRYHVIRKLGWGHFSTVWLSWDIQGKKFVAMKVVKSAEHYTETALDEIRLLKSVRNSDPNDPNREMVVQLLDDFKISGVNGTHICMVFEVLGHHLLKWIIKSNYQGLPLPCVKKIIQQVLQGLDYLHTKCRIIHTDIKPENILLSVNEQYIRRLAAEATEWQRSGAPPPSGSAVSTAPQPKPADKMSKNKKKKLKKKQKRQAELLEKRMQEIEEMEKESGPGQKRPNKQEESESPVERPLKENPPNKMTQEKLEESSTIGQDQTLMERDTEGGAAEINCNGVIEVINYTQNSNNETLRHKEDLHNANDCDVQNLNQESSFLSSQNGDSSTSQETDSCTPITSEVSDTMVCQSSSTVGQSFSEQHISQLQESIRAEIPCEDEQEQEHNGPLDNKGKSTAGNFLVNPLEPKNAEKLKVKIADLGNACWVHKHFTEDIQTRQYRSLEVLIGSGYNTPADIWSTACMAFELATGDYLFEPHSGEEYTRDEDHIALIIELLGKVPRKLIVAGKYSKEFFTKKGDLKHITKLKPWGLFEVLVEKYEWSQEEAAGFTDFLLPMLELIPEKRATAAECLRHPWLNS
How it is done: as §1

In test [7] the target is T7, CDK9-Cyclin T1 (Homo sapiens, UniProt P50750).
T7 construct: lines 1-140) and Reaction Biology
T7 sequence (P50750 whole entry): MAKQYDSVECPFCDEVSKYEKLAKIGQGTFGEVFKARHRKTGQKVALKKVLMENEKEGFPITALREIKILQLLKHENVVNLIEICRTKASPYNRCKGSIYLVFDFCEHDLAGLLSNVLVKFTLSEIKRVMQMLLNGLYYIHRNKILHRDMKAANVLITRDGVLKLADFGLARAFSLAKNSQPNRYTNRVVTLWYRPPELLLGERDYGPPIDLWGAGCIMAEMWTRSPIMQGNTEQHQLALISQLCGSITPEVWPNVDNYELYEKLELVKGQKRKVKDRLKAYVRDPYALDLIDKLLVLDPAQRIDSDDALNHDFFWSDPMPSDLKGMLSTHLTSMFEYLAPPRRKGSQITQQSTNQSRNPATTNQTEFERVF
T7 sequence (O60563 whole entry partner): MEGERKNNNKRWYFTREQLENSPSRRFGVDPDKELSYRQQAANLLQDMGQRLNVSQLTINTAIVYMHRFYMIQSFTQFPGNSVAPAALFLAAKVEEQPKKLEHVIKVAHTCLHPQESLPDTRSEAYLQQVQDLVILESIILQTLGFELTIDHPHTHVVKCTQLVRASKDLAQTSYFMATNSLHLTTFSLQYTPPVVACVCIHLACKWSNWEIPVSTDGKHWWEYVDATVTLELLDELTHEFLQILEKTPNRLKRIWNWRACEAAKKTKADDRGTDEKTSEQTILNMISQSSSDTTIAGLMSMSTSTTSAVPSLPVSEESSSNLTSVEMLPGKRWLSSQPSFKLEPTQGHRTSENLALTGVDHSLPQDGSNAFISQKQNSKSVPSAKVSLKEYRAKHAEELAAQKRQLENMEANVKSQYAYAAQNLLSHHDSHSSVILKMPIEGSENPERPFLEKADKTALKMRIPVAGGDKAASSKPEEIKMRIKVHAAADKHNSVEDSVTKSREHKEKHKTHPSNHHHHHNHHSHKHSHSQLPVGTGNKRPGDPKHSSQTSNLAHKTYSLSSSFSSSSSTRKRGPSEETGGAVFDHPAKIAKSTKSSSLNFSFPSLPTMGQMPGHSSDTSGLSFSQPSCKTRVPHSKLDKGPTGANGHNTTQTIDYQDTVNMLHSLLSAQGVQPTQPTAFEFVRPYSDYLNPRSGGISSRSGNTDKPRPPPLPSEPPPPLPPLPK
On the procedure: as §1

The target of test [8] is T8, MARK3 (Homo sapiens, UniProt P27448).
T8 construct: lines 1-140) and Reaction Biology
T8 sequence (P27448 whole entry): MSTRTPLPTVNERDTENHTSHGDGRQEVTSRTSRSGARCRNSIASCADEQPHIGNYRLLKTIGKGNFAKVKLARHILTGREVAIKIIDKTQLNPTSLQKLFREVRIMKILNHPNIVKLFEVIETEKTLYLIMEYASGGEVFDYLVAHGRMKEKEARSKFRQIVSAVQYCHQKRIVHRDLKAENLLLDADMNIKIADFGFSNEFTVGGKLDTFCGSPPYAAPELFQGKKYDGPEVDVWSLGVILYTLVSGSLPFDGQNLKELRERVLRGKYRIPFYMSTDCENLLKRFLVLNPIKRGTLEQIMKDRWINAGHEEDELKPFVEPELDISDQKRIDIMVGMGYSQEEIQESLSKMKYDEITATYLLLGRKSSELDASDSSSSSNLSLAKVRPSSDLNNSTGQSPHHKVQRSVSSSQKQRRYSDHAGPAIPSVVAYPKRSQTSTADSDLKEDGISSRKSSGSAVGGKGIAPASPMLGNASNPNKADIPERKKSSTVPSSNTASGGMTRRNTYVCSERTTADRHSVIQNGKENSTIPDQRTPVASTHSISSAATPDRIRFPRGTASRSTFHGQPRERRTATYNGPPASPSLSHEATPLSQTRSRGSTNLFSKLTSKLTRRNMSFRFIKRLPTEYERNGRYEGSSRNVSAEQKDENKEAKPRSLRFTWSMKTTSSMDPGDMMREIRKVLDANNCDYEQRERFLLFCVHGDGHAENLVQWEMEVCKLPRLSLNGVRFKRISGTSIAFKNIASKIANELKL
On the procedure: as §1

Test [9] addresses T9, p38a MAPK (Homo sapiens, UniProt Q16539).
T9 construct: lines 1-140) and Reaction Biology
How it is done:
as §1

For test [10], the target named is T10, TSSK1 (Homo sapiens, UniProt Q9BXA7).
T10 construct: lines 1-140) and Reaction Biology
T10 sequence (Q9BXA7 1-367): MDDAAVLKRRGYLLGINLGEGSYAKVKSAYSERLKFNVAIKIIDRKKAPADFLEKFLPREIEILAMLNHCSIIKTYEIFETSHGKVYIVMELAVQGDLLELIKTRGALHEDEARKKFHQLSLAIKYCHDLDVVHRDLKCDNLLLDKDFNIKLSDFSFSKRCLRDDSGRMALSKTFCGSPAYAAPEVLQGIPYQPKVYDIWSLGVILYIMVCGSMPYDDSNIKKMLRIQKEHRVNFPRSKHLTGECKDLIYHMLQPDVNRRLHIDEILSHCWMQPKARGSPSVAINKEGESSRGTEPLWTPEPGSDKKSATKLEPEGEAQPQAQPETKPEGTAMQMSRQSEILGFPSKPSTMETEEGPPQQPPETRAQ
On the procedure: as §1

Test [11] has as its target T11, NUAK1 (Homo sapiens, UniProt O60285).
T11 construct: lines 1-140) and Reaction Biology
T11 sequence (O60285 1-661): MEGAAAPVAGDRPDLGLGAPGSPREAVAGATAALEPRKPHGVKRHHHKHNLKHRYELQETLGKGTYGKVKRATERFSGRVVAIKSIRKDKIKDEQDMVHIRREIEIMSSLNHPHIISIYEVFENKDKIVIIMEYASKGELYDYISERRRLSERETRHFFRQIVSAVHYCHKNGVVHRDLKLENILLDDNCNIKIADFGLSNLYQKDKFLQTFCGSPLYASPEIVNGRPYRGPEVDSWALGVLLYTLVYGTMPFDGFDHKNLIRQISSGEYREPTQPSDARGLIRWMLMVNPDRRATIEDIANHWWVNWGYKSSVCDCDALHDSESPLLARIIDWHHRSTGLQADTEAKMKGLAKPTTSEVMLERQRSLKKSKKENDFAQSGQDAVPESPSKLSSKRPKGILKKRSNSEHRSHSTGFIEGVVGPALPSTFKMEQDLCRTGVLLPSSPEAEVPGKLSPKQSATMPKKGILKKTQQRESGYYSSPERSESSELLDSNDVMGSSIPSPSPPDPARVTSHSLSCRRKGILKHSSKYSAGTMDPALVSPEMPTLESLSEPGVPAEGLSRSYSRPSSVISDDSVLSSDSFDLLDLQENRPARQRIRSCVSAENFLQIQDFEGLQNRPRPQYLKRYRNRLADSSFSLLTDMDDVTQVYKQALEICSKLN
On the procedure: as §1

For test [12], the target named is T12, IGF-1R (Homo sapiens, UniProt P08069).
T12 construct: lines 1-140) and Reaction Biology
How it is done:
as §1

By residual activity is commonly meant the signal under treatment as a percentage of the control signal.

T5 sequence (P78368 whole entry): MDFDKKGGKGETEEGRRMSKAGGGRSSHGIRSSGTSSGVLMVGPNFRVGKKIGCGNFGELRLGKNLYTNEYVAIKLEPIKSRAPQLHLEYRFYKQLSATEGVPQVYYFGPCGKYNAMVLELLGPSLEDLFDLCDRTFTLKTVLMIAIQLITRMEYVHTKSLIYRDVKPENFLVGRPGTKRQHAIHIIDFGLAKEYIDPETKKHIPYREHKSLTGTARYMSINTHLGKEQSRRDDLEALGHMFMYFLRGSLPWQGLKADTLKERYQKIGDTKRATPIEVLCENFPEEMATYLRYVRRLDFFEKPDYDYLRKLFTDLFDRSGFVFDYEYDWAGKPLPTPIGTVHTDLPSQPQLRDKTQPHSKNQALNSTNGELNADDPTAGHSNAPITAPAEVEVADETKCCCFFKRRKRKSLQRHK
T4 sequence (P45984 whole entry): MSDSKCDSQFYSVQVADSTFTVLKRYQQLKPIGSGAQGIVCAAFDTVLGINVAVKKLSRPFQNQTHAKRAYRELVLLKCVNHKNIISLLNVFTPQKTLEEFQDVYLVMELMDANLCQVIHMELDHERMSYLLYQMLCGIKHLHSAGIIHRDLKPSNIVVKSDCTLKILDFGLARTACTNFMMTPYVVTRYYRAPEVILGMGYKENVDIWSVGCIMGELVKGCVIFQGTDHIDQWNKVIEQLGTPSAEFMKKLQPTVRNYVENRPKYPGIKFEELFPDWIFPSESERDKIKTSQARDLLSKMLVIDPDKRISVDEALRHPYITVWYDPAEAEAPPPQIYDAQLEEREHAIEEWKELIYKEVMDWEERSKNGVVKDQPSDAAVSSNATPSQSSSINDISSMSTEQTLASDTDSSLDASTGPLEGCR
T9 sequence (Q16539 whole entry): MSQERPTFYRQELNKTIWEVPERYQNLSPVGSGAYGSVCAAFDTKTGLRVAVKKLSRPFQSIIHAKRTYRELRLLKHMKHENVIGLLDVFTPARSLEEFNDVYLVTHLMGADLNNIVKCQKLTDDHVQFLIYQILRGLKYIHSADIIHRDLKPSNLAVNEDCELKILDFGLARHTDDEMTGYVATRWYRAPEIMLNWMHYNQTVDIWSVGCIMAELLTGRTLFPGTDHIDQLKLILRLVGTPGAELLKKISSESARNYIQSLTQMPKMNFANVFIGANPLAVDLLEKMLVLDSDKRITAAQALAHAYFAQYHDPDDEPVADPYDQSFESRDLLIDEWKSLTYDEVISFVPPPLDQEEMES

As to `Oc1ncnc2c1c(-c1ccccc1)cn2-c1ccccc1` [F1386-0303, 5,7-diphenyl-7H-pyrrolo[2,3-d]pyrimidin-4-ol], the remaining activity at 1 µM amounted to 101% in [1]; 73% in test [2]; 96% in test [3]; 94% in test [4]; 106% in [5]; 112% in test [6]. The remaining activity at 1 µM is 88% in test [7]; 111% in test [8]; 78% in [9]; 109% in test [10]; 48% in test [11]; 108% in [12].
For `O=C1Cc2c([nH]c3ccc(Br)cc23)-c2ccccc2N1` [Kenpaullone], the remaining activity at 1 µM in [1] came to 101%; in test [2], 30%; in [3], 95%; in test [4] it was 94%; in test [5] it was 81%; in [6] it was 36%. The remaining activity at 1 µM in test [7] was 22%; in [8] it was 62%; in test [9] it was 94%; in [10] it was 46%; in [11], 79%; in test [12], 74%.
For `COCCOc1ccc(-c2cn(-c3ccccc3)c3nc[nH]c(=O)c23)cc1` [DMX-5804, 5-[4-(2-methoxy-ethoxy)-phenyl]-7-phenyl-3,7-dihydro-pyrrolo[2,3-d]pyrimidin-4-one], the remaining activity at 1 µM worked out at 104% in test [1]; 27% in test [2]; 93% in test [3]; 103% in test [4]; 103% in test [5]; 91% in test [6]. The remaining activity at 1 µM in [7] was determined as 113%; in test [8], 88%; in [9], 96%; in test [10], 103%; in [11], 14%; in [12], 112%.
Regarding `O=C1Nc2ccc(I)cc2/C1=C/c1cc(Br)c(O)c(Br)c1` [GW5074], the remaining activity at 1 µM turned out to be 91% in [1]; 29% in test [2]; 77% in [3]; 80% in [4]; 68% in [5]; 8% in [6]. Also, the remaining activity at 1 µM was 104% in test [7]; 72% in test [8]; 49% in test [9]; 73% in test [10]; 63% in test [11]; 88% in [12].
As for `Nc1ncc(C(=O)NC2CN(C(=O)C3CC3)C2)c2ccc(-c3cccc(F)c3)nc12` [GNE-495], the residual activity in [1] (1 μM) was found to be 55%; in [2] (1 μM), 92%; in test [3] (1 μM), 100%; in [4] (1 μM), 100%; in [5] (1 μM), 107%; in test [6] (1 μM), 105%. Besides, the residual activity in test [7] (1 μM) was found to be 78%; in test [8] (1 μM), 46%; in test [9] (1 μM), 95%; in [10] (1 μM), 77%; in test [11] (1 μM), 49%; in [12] (1 μM), 85%.
